Measured values from patent publication US10941160B2, “Bromodomain inhibitors” (CELGENE QUANTICEL RESEARCH, INC., priority 2013, dated 2021).
Like-named read-outs stand apart in the source and are kept apart here.

Experiments:
[1] = system: Raji, human Burkitts lymphoma cells; test: Cell-MTS cellular proliferation assay, Raji; assay type: cell-based
Description: (§1) The Cell-MTS assay is a 7-day plate-based colorimetric assay which quantifies the amount of newly generated NADH in the presence or absence of test compound. The NADH level is used for the quantification of cancer cell proliferation.
(§2) Established cancer cell lines with a variety of driving mutations were obtained from American Type Culture Collection (ATCC) and routinely passaged according to ATCC protocols. For routine assay, these cells were seeded at densities which enabled ˜90% confluence after 7 days of culture. Raji, human Burkitts lymphoma cells, (cMYC) were seeded at 15,000 cells per 96-well. HL-60, human proleukemia cells, (NRAS, p16, p53, c-Myc amplified) were seeded at 5,000 cells per 96-well. NCI-H460, human non-small cell lung cancer cells, (KRAS, PIK3CA, STLK11, p16) were seeded at 3,000 cells per 96-well 24 hr after plating, cells received an 11-point dilution of test compound with final concentration ranges from 100 μM to 2.0 nM. […] At the end of this incubation period, 80 μL of media is removed and 20 μL of CellTiter 96® AQueous Non-Radioactive Cell Proliferation Assay soln (Promega) was added. The cells were incubated until the OD490 was >0.6. IC50 values were calculated using the IDBS XLtit software package and include background subtracted OD490 values and normalization to DMSO controls. Cellular proliferation IC50 values were uploaded and archived using the Chem Biography Platform.

[2] = system: HL-60, human proleukemia cells; test: Cell-MTS cellular proliferation assay, HL-60; assay type: cell-based
Description: as §1, §2

BRD4(BD1) = BRD4(BD1) (Homo sapiens (Human), UniProt O60885); test: In vitro enzyme inhibition assay (BRD4 AlphaScreen, H4-tetraacetyl peptide); assay type: binding
Description: His-tagged BRD4 was cloned, expressed and purified to homogeneity. […] BRD4 binding and inhibition was assessed by monitoring the interaction of biotinylated H4-tetraacetyl peptide (AnaSpec, H4K5/8/12/16(Ac), biotin-labeled) with the target using the AlphaScreen technology (Life Technologies). […] After 20 min incubation at room temp, Alpha streptavidin donor beads and Nickel Chelate acceptor beads were added to a final concentration of 5 μg/mL.
The ability of the compounds disclosed herein to inhibit BRD4 activity was quantified and the respective IC50 value was determined.

[3] = system: NCI-H460, human non-small cell lung cancer cells; test: Cell-MTS cellular proliferation assay, NCI-H460; assay type: cell-based
Description: as §1, §2

[4] = in vitro enzyme inhibition assay, class symbols, read-out: BRD4 IC50

`CCNS(=O)(=O)c1cccc(-c2cn(C)c(=O)c3ccc(F)cc23)c1` [Example 49, N-ethyl-3-(6-fluoro-2-methyl-1-oxoisoquinolin-4yl) benzenesulfonamide] gave an IC50 ([1]; Homo sapiens, Raji, 168 h, read-out: Raji IC50 (μM)) of 0.5 to 5 µM, an IC50 ([2]; Homo sapiens, HL-60, 168 h, read-out: HL-60 IC50 (μM)) of 0.5 to 5 µM and an IC50 (BRD4(BD1)) of 500 to 5000 nM.

`COc1ccc(-c2cn(C)c(=O)c3cnccc23)cc1S(=O)(=O)NCc1ccccc1` [Example 54, N-benzyl-2-methoxy-5-(2-methyl-1-oxo-2,7-naphthyridin-4-yl) benzenesulfonamide] was tested, and the IC50 ([3]; Homo sapiens, NCI-H460, 168 hr) was > 5000 nM, the IC50 ([1]; Homo sapiens, Raji, Cell-MTS proliferation, 168 hr, read-out: Raji IC50) was > 5 µM and the IC50 ([2]; Homo sapiens, HL-60, Cell-MTS proliferation, 168 hr, read-out: HL-60 IC50) was 0.5 to 5 µM.

For `Cn1cc(-c2cccc(S(N)(=O)=O)c2)c2ccc(F)cc2c1=O` [Example 61, 3-(7-fluoro-2-methyl-1-oxoisoquinolin-4-yl) benzenesulfonamide], the IC50 ([1]; Cell-MTS proliferation, 168 hr, read-out: Raji IC50) was 0.5 to 5 µM, the IC50 ([2]; Cell-MTS proliferation, 168 hr, read-out: HL-60 IC50) was 0.5 to 5 µM and the IC50 (BRD4(BD1); in vitro enzyme inhibition assay, read-out: BRD4 IC50) was < 500 nM.

`Cn1cc(-c2cc(S(C)(=O)=O)ncc2OCC2CC2)c2ccc(F)cc2c1=O` [Example 203, 4-[5-(cyclopropylmethoxy)-2-methylsulfonylpyridin-4-yl]-7-fluoro-2-methylisoquinolin-1-one] was tested, and the IC50 ([3]; Homo sapiens, NCI-H460, 168 hr, class symbols) was > 5000 nM, the IC50 ([1]; Homo sapiens, Raji, Cell-MTS proliferation, 168 hr, class symbols, read-out: Raji IC50) was < 0.5 µM and the IC50 ([2]; Homo sapiens, HL-60, Cell-MTS proliferation, 168 hr, class symbols, read-out: HL-60 IC50) was < 0.5 µM. The IC50 (BRD4(BD1); [4]) was < 500 nM.

In the case of `Cn1cc(-c2cc(OS(N)(=O)=O)ccc2OCC2CC2)c2ccccc2c1=O` [Example 214, [4-(cyclopropylmethoxy)-3-(2-methyl-1-oxoisoquinolin-4-yl)phenyl] sulfamate], the IC50 (BRD4(BD1); [4]) is reported as < 500 nM.

`Cc1cc(-c2cc(OS(N)(=O)=O)ccc2OCC2CC2)cn(C)c1=O` [Example 215, [4-(cyclopropylmethoxy)-3-(1,5-dimethyl-6-oxopyridin-3-yl)phenyl] sulfamate] was tested, and the IC50 (BRD4(BD1); [4]) was < 500 nM.

In the case of “N-[5-(cyclopropylmethoxy)-4-(7-fluoro-2-methyl-1-oxoisoquinolin-4-yl) pyrimidin-2-yl]methanesulfonamide [Example 158]”, the IC50 ([3]; 168 hr, class symbols) is reported as > 5000 nM, the IC50 ([1]; Cell-MTS proliferation, 168 hr, class symbols, read-out: Raji IC50) is reported as < 0.5 µM and the IC50 ([2]; Cell-MTS proliferation, 168 hr, class symbols, read-out: HL-60 IC50) is reported as < 0.5 µM. The IC50 (BRD4(BD1); read-out: BRD4 IC50) was < 500 nM.
